Here are results for two compounds from US20210246208A1, “COMBINED INHIBITION OF PD-1/PD-L1, TGFB AND DNA-PK FOR THE TREATMENT OF CANCER” (MERCK PATENT GMBH, priority 2018, published 2021).

One data set has as its system MC38 tumors. The data set can be described thus: M3814 and avelumab in murine colon tumor model MC38 (Example 1). The data set is classed as in vivo, C57BL6/N mice. The note with it: M3814 150 mg/kg orally once daily, avelumab 400 μg/mouse i.v. days 3, 6, 9; for median time the tumors needed to double in size compared to initial volume at day 0: MC38 in C57BL6/N mice, Kaplan-Meyer evaluation; for T/C value: calculated at day 13. The text has this:
M3814 was applied daily started from day 0; Avelumab was applied on days 3, 6 and 9.
This model allows the use of immunocompetent mice, a necessary requirement to study the T-cell mediated antitumor effect of Avelumab. The experimental set up included the induction of MC38 tumors in C57BL6/N mice by injection of 1×10^6 tumor cells into the right flank of the animals. Tumor growth was followed over time by measuring length and width using a caliper. When tumors were established to an average size of 50-100 mm^3, mice were subdivided in 4 treatment groups with 10 animals each, and treatment started. This day was defined as day 0. Group 1 received vehicle treatment. Group 2 received M3814 orally once daily at 150 mg/kg in a volume of 10 ml/kg. Group 3 received avelumab intravenously once daily at 400 μg/mouse in a volume of 5 ml/kg on days 3, 6 and 9. Group 4 received M3814 orally once daily at 150 mg/kg in a volume of 10 ml/kg and avelumab intravenously once daily at 400 μg/mouse in a volume of 5 ml/kg on days 3, 6 and 9.

Data set [1] deals with EMT, fibrosis and VEGF pathway gene signatures in 4T1 tumor tissue. As to the kind of experiment: RNAseq gene signatures of 4T1 tumor tissue (Example 3G). The data set is classed as in vivo, BALB/c mice. The note with it: tumors harvested day 6. Here is the method:
Tumor tissues were harvested at Day 6 for RNAseq analysis. Gene expression signatures associated with (A) EMT, (B) fibrosis, and (C) VEGF pathway signatures are presented as box plots. Signature scores are defined as the mean log2 (fold change) among all genes in the signature.
RNAseq was performed with Qiagen targeted RNAseq panels consisting of 1278 total genes. EMT and fibrosis gene signatures were based on Qiagen gene lists and the VEGF pathway signature was based on the Biocarta VEGF pathway in Broad's Canonical Pathways. For these gene sets, signature scores are defined as the mean log2 (fold-change) among all genes in each gene signature. These were calculated by adding a pseudocount of 0.5 TPM to all genes and samples, determining the log2 (TPM), then subtracting the median log 2-TPM for each gene across all samples from the log2-TPM for each gene. Signature scores for gene sets are shown as boxplots.

For the next data set, the target named is DNA-PK (Homo sapiens, UniProt P78527). The data set can be described thus: Crystallographic and enzyme kinetics studies on DNA-PK. The data set is classed as biochemical. The text has this:
DNA-PK, together with five additional protein factors (Ku70, Ku80, XRCC4, Ligase IV and Artemis) plays a critical role in the repair of DSB via NHEJ. Kinase activity of DNA-PK is essential for proper and timely DNA repair and the long-term survival of cancer cells.

A further data set deals with 4T1 mammary tumors. The data set can be described thus: 4T1 mammary tumor model, tumor volume and survival (Example 3A). Particulars: concurrent dosing; day 10; Trap 492 μg day 0, 2, 4; radiation 8 Gy day 0-3; M3814 150 mg/kg p.o. q.d. day 0-14.
For data set [2] the following is noted: 10 mg/kg dose; cited from earlier work.

Experimental for 4T1 mammary tumors: BALB/c mice were inoculated intramuscularly (i.m.) with 0.5×10^5 4T1 cells (day −6) and treated (n=10 mice/group) with (A-C) isotype control (400 μg i.v.; day 0, 2, 4)+vehicle control (0.2 mL, orally [per os; p.o.], once daily [quaque die; q.d.], day 0-14), M7824 (492 μg i.v.; day 0, 2, 4), radiation (8 Gy, day 0-3), M3814 (150 mg/kg, p.o, q.d., day 0-14), M7824+RT, M7824+M3814, RT+M3814, or M7824+RT+M3814; or (D-F) isotype control (400 μg i.v.; day 4, 6, 8)+vehicle control (0.2 mL, (p.o.), (q.d.), day 0-14), M7824 (492 μg i.v.; day 4, 6, 8), radiation (8 Gy, day 0-3), M3814 (150 mg/kg, p.o, q.d., day 0-14), M7824+RT, M7824+M3814, RT+M3814, or M7824+RT+M3814. A-B, D-E, Tumor volumes were measured twice weekly and presented as (A, D) mean±SEM or (B, E) individual tumor volumes. P-values were calculated by two-way RM ANOVA with Tukey's post-test. C, F, For survival analysis, mice were sacrificed when tumor volumes reached ≈2000 mm^3 and median survival times were calculated.
For efficacy and survival studies, 4T1 cells, 0.5×10^5, were inoculated intramuscularly (i.m.) in the thigh of BALB/c mice on day −6. […]
Tumor sizes for the 4T1 and MC38 models were measured twice per week with digital calipers and recorded automatically using WinWedge software. Tumor volumes were calculated with the following formula: tumor volume (mm^3)=tumor length×width×height×0.5236. […]

As to `COc1ccc([C@@H](O)c2cc(-c3ncnc4cc(N5CCOCC5)ccc34)c(F)cc2Cl)nn1` [Compound M3814, (S)-[2-chloro-4-fluoro-5-(7-morpholin-4-yl-quinazolin-4-yl)-phenyl]-(6-methoxypyridazin-3-yl)-methanol], in the data set on MC38 tumors, the “median time the tumors needed to double in size compared to initial volume at day 0” value is 10 days and the T/C value is 47%. In addition, in data set [1], the “EMT signature score” value is listed as “no effect on the EMT signature” and the “fibrosis signature score” value is on record as “significantly decreased the score”. The “inhibition of DNA-PK” value against DNA-PK was “potent and selective ATP-competitive inhibitor of DNA-PK”. For the same compound, the “tumor volume” value with 4T1 mammary tumors was “did not significantly affect tumor growth”.

On to “avelumab: fully human monoclonal antibody of the immunoglobulin (Ig) G1 isotype that selectively binds to PD-L1”, for which, in the data set on MC38 tumors, the “median time the tumors needed to double in size compared to initial volume at day 0” value was determined as 13 days and the T/C value is given as 60%. In addition, in data set [2], the “pharmacokinetics profile” value is listed as “predictable pharmacokinetics profile”, the “receptor occupancy” value is on record as “excellent receptor occupancy” and the tolerability result is listed as “well tolerated”.
